{"source": "ChEMBL document CHEMBL5678818", "about": "“Discovery of potent SOS1 inhibitors that block RAS activation via disruption of the RAS-SOS1 interaction” (Proc Natl Acad Sci U S A, 2019)", "key": {"[1]": {"tested_on": "SOS1-KRAS (Homo sapiens), Q07889+P01116 [G12C]", "experiment": "Inhibition of N-terminal GST-tagged recombinant human KRAS G12C mutant (1 to 169 residues) expressed in Escherichia coli/N-terminal His10-tagged wild-type recombinant human SOS1 catalytic domain (564 to 1049 residues) expressed in Escherichia coli protein-protein interaction assessed as reduction in FRET signal by HTRF analysis"}, "[2]": {"biological_target": "Serine/threonine-protein kinase N2 (Homo sapiens) (UniProt Q16513)", "experiment": "Inhibition of PKN2 (unknown origin) assessed as residual activity at 100 nM by KINOMEscan analysis relative to control"}, "[3]": {"biological_target": "Insulin receptor (Homo sapiens) (UniProt P06213)", "sequence (P06213 28-758 limits assumed)": "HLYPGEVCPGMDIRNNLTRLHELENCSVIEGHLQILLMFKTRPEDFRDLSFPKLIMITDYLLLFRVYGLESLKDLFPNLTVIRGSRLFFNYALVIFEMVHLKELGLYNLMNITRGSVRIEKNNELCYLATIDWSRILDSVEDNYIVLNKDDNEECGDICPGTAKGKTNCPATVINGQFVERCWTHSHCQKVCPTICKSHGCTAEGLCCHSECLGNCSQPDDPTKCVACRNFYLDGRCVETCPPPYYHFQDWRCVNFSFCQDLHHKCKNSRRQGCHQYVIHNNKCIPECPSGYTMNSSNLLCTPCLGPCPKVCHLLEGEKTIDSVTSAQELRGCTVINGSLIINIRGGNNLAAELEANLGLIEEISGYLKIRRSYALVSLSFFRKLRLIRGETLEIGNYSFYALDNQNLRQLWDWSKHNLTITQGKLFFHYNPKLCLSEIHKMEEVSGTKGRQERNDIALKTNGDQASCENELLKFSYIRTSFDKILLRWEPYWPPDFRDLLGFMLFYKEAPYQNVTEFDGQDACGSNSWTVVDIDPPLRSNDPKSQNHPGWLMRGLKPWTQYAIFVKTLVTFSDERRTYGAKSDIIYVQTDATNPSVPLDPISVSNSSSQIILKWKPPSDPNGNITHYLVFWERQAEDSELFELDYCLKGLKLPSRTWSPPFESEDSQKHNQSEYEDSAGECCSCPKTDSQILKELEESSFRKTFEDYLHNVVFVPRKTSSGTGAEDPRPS", "sequence (P06213 763-1382 limits assumed)": "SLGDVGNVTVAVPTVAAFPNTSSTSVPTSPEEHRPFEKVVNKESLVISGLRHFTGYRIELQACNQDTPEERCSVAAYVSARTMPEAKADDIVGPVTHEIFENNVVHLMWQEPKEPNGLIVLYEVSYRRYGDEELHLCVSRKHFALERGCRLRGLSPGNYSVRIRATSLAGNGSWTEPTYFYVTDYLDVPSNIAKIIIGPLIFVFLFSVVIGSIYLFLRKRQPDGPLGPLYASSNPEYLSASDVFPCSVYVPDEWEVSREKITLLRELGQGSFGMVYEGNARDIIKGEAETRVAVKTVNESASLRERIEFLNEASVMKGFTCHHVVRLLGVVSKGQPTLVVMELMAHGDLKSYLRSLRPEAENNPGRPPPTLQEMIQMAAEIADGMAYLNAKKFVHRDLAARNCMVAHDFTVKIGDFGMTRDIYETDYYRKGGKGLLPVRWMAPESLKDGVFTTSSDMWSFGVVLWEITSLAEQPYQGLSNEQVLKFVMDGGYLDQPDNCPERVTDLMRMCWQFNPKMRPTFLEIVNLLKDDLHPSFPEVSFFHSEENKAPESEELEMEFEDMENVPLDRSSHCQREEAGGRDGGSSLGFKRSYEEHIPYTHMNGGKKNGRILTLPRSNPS", "experiment": "Inhibition of INSR (unknown origin) assessed as residual activity at 100 nM by KINOMEscan analysis relative to control"}, "[4]": {"biological_target": "Receptor-type tyrosine-protein kinase FLT3 (Homo sapiens) (UniProt P36888)", "sequence (P36888 whole entry)": "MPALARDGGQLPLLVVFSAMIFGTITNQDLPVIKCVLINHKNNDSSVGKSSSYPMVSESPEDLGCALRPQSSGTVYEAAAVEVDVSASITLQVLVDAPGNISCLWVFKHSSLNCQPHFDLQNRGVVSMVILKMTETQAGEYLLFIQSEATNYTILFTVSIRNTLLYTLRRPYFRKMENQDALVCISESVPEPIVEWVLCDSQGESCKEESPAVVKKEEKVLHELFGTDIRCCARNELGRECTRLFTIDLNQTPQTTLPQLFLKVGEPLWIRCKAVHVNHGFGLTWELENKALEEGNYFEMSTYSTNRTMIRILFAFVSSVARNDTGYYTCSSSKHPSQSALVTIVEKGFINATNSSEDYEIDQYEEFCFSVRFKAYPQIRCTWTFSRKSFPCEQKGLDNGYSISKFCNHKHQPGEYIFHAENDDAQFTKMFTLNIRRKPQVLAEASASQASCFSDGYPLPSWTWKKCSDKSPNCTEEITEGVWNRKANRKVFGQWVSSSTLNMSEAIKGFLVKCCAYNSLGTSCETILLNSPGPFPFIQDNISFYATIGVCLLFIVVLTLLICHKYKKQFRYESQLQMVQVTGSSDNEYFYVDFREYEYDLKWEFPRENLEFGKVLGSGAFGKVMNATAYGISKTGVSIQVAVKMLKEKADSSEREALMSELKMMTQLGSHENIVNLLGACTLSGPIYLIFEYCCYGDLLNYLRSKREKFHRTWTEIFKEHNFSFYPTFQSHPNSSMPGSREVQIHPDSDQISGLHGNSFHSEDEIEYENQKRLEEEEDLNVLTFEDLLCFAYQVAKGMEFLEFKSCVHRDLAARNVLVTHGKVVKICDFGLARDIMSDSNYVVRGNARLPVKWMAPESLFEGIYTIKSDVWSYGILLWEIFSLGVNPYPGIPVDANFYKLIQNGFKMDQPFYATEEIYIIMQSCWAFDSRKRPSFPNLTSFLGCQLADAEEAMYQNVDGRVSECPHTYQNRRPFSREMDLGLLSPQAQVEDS", "experiment": "Inhibition of FLT3 (unknown origin) assessed as residual activity at 100 nM by KINOMEscan analysis relative to control"}, "[5]": {"biological_target": "T1, Dual specificity mitogen-activated protein kinase kinase 5 (Homo sapiens) (UniProt Q13163)", "T1 sequence (whole entry)": "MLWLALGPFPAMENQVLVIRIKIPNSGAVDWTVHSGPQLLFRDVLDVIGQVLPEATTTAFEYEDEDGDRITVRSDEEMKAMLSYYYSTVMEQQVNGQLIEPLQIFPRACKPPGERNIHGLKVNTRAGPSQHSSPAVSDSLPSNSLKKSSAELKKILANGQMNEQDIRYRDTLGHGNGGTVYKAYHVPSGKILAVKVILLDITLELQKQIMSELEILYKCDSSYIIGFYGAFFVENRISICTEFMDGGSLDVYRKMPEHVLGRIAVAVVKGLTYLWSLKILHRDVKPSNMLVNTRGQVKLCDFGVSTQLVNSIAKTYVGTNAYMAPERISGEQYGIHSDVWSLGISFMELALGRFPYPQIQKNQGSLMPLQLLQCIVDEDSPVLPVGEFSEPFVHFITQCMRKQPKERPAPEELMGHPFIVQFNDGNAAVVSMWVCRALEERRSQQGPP", "experiment": "Inhibition of MEK5 (unknown origin) assessed as residual activity at 100 nM by KINOMEscan analysis relative to control"}, "[6]": {"biological_target": "T2, Mitogen-activated protein kinase kinase kinase 15 (Homo sapiens) (UniProt Q6ZN16)", "T2 sequence (whole entry)": "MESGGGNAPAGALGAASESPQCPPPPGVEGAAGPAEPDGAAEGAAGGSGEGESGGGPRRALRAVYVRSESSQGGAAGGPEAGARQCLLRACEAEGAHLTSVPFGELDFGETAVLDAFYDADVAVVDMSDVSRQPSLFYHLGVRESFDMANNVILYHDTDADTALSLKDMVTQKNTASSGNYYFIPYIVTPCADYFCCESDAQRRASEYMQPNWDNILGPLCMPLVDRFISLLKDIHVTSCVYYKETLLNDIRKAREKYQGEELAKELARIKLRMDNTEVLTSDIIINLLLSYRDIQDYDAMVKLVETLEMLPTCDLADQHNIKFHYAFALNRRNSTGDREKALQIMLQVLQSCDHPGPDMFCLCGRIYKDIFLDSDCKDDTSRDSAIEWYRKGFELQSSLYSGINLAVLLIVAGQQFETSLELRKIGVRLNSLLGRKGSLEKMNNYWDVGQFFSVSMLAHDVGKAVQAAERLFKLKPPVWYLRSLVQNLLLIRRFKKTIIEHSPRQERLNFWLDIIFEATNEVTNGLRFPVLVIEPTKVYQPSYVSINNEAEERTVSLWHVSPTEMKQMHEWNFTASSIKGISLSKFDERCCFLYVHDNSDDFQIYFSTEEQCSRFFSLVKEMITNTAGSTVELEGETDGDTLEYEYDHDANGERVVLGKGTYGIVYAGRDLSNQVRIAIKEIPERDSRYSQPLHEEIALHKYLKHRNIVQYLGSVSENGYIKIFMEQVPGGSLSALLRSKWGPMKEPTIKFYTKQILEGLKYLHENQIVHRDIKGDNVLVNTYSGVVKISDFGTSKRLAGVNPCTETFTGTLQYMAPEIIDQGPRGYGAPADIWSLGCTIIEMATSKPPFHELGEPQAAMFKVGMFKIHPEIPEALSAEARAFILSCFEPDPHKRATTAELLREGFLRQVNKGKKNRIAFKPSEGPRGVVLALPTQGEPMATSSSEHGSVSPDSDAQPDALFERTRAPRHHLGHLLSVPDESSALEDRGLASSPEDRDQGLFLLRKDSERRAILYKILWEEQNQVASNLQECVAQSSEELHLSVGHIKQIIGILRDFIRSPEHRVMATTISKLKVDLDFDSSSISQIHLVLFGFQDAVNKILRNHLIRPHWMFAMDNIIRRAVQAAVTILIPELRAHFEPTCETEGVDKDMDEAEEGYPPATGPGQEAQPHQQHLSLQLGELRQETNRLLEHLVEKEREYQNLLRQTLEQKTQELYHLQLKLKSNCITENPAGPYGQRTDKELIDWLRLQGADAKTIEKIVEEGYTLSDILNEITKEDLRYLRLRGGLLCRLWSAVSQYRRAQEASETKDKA", "experiment": "Inhibition of MAP3K15 (unknown origin) assessed as residual activity at 100 nM by KINOMEscan analysis relative to control"}, "[7]": {"biological_target": "Peripheral plasma membrane protein CASK (Homo sapiens) (UniProt O14936)", "sequence (O14936 whole entry, looked up)": "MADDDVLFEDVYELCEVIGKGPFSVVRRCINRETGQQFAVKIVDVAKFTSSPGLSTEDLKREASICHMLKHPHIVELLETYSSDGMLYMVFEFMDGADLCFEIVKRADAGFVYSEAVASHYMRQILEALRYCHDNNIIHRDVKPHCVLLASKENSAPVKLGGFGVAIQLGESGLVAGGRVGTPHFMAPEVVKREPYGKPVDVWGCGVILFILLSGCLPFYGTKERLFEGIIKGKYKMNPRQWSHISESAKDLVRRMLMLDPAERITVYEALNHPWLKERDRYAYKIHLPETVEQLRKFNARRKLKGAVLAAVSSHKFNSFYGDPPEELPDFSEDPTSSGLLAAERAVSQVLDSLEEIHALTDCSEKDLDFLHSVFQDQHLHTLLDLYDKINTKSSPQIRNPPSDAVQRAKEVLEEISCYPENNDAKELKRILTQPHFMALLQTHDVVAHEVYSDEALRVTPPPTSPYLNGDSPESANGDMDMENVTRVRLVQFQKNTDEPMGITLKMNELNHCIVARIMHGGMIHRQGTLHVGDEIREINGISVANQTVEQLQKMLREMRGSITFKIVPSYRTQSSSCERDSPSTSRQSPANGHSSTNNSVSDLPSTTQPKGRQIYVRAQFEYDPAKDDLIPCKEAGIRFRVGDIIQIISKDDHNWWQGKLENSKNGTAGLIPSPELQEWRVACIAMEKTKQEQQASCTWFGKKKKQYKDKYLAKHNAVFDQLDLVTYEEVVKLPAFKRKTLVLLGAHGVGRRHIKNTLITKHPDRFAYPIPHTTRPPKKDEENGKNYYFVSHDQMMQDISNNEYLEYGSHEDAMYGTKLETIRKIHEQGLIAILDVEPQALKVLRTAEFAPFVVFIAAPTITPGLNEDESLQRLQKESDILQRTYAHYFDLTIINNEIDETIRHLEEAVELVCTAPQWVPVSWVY", "experiment": "Inhibition of CASK (unknown origin) assessed as residual activity at 100 nM by KINOMEscan analysis relative to control"}, "[8]": {"biological_target": "Cyclin-dependent kinase 18 (Homo sapiens) (UniProt Q07002)", "sequence (Q07002 whole entry)": "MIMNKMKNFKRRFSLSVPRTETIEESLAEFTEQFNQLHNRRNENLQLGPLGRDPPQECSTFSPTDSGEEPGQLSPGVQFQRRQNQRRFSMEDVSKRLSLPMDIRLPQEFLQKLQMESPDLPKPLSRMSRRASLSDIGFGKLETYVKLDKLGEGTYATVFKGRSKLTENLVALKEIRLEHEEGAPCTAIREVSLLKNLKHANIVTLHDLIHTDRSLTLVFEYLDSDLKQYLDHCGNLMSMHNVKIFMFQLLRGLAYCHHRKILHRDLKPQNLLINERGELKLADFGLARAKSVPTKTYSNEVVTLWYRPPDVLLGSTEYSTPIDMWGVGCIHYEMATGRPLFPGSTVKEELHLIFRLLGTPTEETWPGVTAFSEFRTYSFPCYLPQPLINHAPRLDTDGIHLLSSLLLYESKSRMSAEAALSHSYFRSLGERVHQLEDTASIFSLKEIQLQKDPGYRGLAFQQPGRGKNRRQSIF", "experiment": "Inhibition of PCTK3 (unknown origin) assessed as residual activity at 100 nM by KINOMEscan analysis relative to control"}, "[9]": {"biological_target": "Ephrin type-A receptor 5 (Homo sapiens) (UniProt P54756)", "sequence (P54756 whole entry)": "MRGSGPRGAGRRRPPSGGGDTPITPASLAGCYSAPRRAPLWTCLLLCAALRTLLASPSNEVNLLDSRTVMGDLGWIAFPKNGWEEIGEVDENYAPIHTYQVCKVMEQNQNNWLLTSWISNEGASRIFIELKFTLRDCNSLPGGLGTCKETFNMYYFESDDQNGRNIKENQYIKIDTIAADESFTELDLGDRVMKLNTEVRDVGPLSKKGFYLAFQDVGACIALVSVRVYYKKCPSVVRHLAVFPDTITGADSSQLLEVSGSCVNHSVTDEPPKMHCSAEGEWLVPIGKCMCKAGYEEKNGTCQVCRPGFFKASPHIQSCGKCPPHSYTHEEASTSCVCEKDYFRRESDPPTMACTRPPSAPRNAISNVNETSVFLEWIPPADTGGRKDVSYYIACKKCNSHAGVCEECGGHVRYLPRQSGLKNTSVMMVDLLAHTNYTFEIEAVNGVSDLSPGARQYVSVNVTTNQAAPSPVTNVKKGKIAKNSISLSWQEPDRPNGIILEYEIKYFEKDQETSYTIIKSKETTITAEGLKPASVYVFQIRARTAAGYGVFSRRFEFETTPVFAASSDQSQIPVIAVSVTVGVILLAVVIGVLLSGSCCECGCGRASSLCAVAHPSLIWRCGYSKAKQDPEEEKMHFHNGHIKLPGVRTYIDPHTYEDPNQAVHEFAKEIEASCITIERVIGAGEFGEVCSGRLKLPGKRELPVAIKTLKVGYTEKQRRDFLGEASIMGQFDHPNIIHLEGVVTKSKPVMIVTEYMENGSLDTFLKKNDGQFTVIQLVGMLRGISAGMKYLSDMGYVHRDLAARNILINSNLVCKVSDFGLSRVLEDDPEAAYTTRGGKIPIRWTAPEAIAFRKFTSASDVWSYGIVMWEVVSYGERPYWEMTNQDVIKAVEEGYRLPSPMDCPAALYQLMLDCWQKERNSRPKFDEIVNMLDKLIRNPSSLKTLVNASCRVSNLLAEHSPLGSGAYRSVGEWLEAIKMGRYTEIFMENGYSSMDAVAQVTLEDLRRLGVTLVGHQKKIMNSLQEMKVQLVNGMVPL", "experiment": "Inhibition of EPHA5 (unknown origin) assessed as residual activity at 100 nM by KINOMEscan analysis relative to control"}, "[10]": {"biological_target": "T3, Serine/threonine-protein kinase Nek2 (Homo sapiens) (UniProt P51955)", "T3 sequence (whole entry)": "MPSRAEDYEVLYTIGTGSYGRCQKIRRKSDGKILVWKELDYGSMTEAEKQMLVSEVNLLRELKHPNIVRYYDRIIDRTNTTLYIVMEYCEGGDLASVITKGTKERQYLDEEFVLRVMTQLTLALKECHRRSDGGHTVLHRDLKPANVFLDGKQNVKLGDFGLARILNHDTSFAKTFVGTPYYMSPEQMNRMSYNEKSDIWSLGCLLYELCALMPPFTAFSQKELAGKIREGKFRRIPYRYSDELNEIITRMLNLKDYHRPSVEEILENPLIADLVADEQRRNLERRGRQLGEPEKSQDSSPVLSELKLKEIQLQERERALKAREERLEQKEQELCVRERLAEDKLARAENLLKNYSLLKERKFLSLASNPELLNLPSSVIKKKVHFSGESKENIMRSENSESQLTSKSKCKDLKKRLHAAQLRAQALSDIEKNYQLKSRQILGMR", "experiment": "Inhibition of NEK2 (unknown origin) assessed as residual activity at 100 nM by KINOMEscan analysis relative to control"}}, "note": "Activity calls are given as the source filed them. The rule behind the calls is not given here.", "data": [{"molecule": "COc1cc2ncnc(N[C@H](C)c3cccc4ccccc34)c2cc1OC", "values": [{"measurement": "Activity", "setting": "[1]", "result": "Active"}, {"measurement": "Activity", "setting": "[2]", "result": 88, "unit": "%"}, {"measurement": "Activity", "setting": "[3]", "result": 88, "unit": "%"}, {"measurement": "Activity", "setting": "[4]", "result": 83, "unit": "%"}, {"measurement": "Activity", "setting": "[5]", "result": 83, "unit": "%"}, {"measurement": "Activity", "setting": "[6]", "result": 86, "unit": "%"}, {"measurement": "Activity", "setting": "[7]", "result": 72, "unit": "%"}, {"measurement": "Activity", "setting": "[8]", "result": 76, "unit": "%"}, {"measurement": "Activity", "setting": "[9]", "result": 86, "unit": "%"}, {"measurement": "Activity", "setting": "[10]", "result": 100, "unit": "%"}]}]}
